Test results: ChEMBL document CHEMBL1151316, “Pyrrolizidine alkaloids from Heliotropium megalanthum” (J Nat Prod, 1998)

Legend:
[1] = tested on: Leptinotarsa decemlineata; assay: Antifeedant activity in Leptinotarsa decemlineata assessed as reduction of feeding by choice test; type: functional, organism-based
[2] = tested on: Leptinotarsa decemlineata; assay: Antifeedant activity in Leptinotarsa decemlineata assessed as reduction of feeding by no-choice test; type: functional, organism-based
[3] = tested on: Leptinotarsa decemlineata; assay: Insecticidal activity against haemolymph dosed Leptinotarsa decemlineata assessed as increase in mortality after 2 days; type: functional
[4] = tested on: Spodoptera littoralis; assay: Antifeedant activity in Spodoptera littoralis L6 larvae assessed as reduction of feeding at 5 ug/cm2 by choice test; type: functional; design: scale not given: the % may be the effect or the level left
[5] = tested on: Spodoptera littoralis; assay: Antifeedant activity in Spodoptera littoralis L6 larvae assessed as reduction of feeding at 100 ug/cm2 by choice test; type: functional; design: scale not given: the % may be the effect or the level left
[6] = tested on: Spodoptera littoralis; assay: Antifeedant activity in Spodoptera littoralis L6 larvae assessed as reduction of feeding by choice test; type: functional, organism-based
[7] = tested on: Leptinotarsa decemlineata; assay: Antifeedant activity in Leptinotarsa decemlineata assessed as reduction of feeding at 100 ug/cm2 by choice test; type: functional; design: scale not given: the % may be the effect or the level left
[8] = tested on: Leptinotarsa decemlineata; assay: Antifeedant activity in Leptinotarsa decemlineata assessed as reduction of feeding at 100 ug/cm2 by no-choice test; type: functional; design: scale not given: the % may be the effect or the level left
[9] = tested on: Spodoptera littoralis; assay: Insecticidal activity against orally dosed Spodoptera littoralis L6 larvae assessed as relative consumption rate after 72 hrs; type: functional
[10] = tested on: Spodoptera littoralis; assay: Insecticidal activity against orally dosed Spodoptera littoralis L6 larvae assessed as relative growth rate after 72 hrs; type: functional

CC(=O)O[C@H](C)[C@](O)(C(=O)OC[C@@H]1CCN2CCC[C@@H]12)C(C)C
EC50 [1]: 1.79 microg/cm2
EC50 [2]: 2.92 microg/cm2
Activity [3]: 5%

CO[C@@H](C)[C@](O)(C(=O)OCC1=CCN2CC[C@H](O)[C@@H]12)C(C)(C)O [EUROPINE]
Activity [4]: 67%

CC(C)[C@](O)(C(=O)OCC1=CCN2CC[C@@H](O)[C@@H]12)[C@@H](C)O [LYCOPSAMINE]
Activity [5]: 61.08%
EC50 [6]: 31.62 microg/cm2
Activity [7]: 27.53%
Activity [8]: 68.4%
EC50 [2]: 25.97 microg/cm2
Activity [9]: 21.19 mg
Activity [10]: 3.32 mg
Activity [3]: 12%

CC(C)[C@@](O)(C(=O)OC[C@H]1CCN2CC[C@@H](O)[C@@H]12)[C@H](C)O [MEGALANTHONINE]
Activity [3]: 10%
